# Measurements taken from patent US12077503B2, “Substituted cyclic amides and their use as herbicides” (FMC CORPORATION, priority 2015, dated 2024).
# Columns and labels:
# Format in all cases: in vivo
# [1] = tested on: barnyardgrass (Echinochloa crus-galli); test: Test A preemergence; conditions: Echinochloa crus-galli, pre-emergence, 240 h
# How it was run: (§1)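 Visual injury scores from 0, no effect, to 100, complete control, were assigned versus untreated controls roughly 10 d after treatment in the greenhouse. Test chemicals, formulated with surfactant in a non-phytotoxic solvent, were applied to planted seeds as a preemergence soil spray or postemergence to one- to two-leaf plants 2 to 10 cm tall, in loam–sand soil.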
# [2] = tested on: ryegrass, Italian (Italian ryegrass, Lolium multiflorum); test: Test A preemergence; conditions: Lolium multiflorum, pre-emergence, 240 h
# How it was run: as §1
# [3] = tested on: giant foxtail (Setaria faberii); test: Test A preemergence; conditions: Setaria faberi, pre-emergence, 240 h
# How it was run: as §1
# [4] = tested on: pigweed (Amaranthus retroflexus); test: Test A preemergence; conditions: Amaranthus retroflexus, pre-emergence, 240 h
# [5] = tested on: Kochia (Kochia scoparia); test: Test A preemergence; conditions: Bassia scoparia, pre-emergence, 240 h
# How it was run: as §1
# [6] = tested on: ragweed (common ragweed, Ambrosia elatior); test: Test A preemergence; conditions: Ambrosia artemisiifolia, pre-emergence, 240 h
# How it was run: as §1
# [7] = tested on: barnyardgrass (Echinochloa crus-galli); test: Test B flooded paddy test; conditions: Echinochloa crus-galli, 250 g ai/ha, Flood; 0 to 100 scale where 0 is no effect and 100 is complete control; read-out: Barnyardgrass plant response rating
# How it was run: (§2)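 Visual ratings (0 none to 100 complete control) are relative to untreated plants, taken 13–15 d after treatment in a greenhouse. Test material went straight into floodwater standing 3 cm above the soil, kept constant, on plants at the 2-leaf stage.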
# [8] = tested on: ducksalad (Heteranthera limosa); test: Test B flooded paddy test; conditions: Heteranthera limosa, 250 g ai/ha, Flood; 0 to 100 scale where 0 is no effect and 100 is complete control; read-out: Ducksalad plant response rating
# How it was run: as §2
# [9] = tested on: rice (Oryra sativa); test: Test B flooded paddy test; conditions: Oryza sativa, 250 g ai/ha, Flood; 0 to 100 scale where 0 is no effect and 100 is complete control; read-out: Rice plant response rating
# How it was run: as §2
# [10] = tested on: sedge, umbrella (small-flower umbrella sedge, Cyperus difformis); test: Test B flooded paddy test; conditions: Cyperus difformis, 250 g ai/ha, Flood; 0 to 100 scale where 0 is no effect and 100 is complete control; read-out: Sedge, Umbrella plant response rating
# How it was run: as §2
# [11] = tested on: barnyardgrass (Echinochloa crus-galli); test: Test A postemergence; conditions: Echinochloa crus-galli, post-emergence, 240 h, read-out: Plant response rating, Barnyardgrass
# How it was run: as §1
# [12] = tested on: ryegrass, Italian (Italian ryegrass, Lolium multiflorum); test: Test A postemergence; conditions: Lolium multiflorum, post-emergence, 240 h, read-out: Plant response rating, Ryegrass, Italian
# How it was run: as §1
# [13] = tested on: wheat (Triticum aestivum); test: Test A postemergence; conditions: Triticum aestivum, post-emergence, 240 h, read-out: Plant response rating, Wheat
# How it was run: as §1
# [14] = tested on: giant foxtail (Setaria faberii); test: Test A postemergence; conditions: Setaria faberi, post-emergence, 240 h, read-out: Plant response rating, Foxtail, Giant
# How it was run: as §1
# [15] = tested on: blackgrass (Alopecurus myosuroides); test: Test A postemergence; conditions: Alopecurus myosuroides, post-emergence, 240 h, read-out: Plant response rating, Blackgrass
# How it was run: as §1
# [16] = tested on: Galium (catchweed bedstraw, Galium aparine); test: Test A postemergence; conditions: Galium, post-emergence, 240 h, read-out: Plant response rating, Galium
# How it was run: as §1
# [17] = tested on: pigweed (Amaranthus retroflexus); test: Test A postemergence; conditions: Amaranthus retroflexus, post-emergence, 240 h, read-out: Plant response rating, Pigweed
# How it was run: as §1
# [18] = tested on: Kochia (Kochia scoparia); test: Test A postemergence; conditions: Bassia scoparia, post-emergence, 240 h, read-out: Plant response rating, Kochia
# How it was run: as §1
# [19] = tested on: ragweed (common ragweed, Ambrosia elatior); test: Test A postemergence; conditions: Ambrosia artemisiifolia, post-emergence, 240 h, read-out: Plant response rating, Ragweed
# How it was run: as §1
# [20] = tested on: corn (Zea mays); test: Test A postemergence; conditions: Zea mays, post-emergence, 240 h
# How it was run: as §1
# [21] = 125 g ai/ha, Postemergence, visual injury after approximately 10 d, 0 to 100 scale where 0 is no effect and 100 is complete control
# [22] = 500 g ai/ha, postemergence, visual injury, 0 to 100 scale (0 no effect, 100 complete control), approx. 10 d
compound,measurement,setting,value
CN1CC[C@H](c2ccc(OC(F)(F)F)cc2)[C@@H](C(=O)Nc2ccc(F)c(F)c2F)C1=O [Compound 1000],pest or weed control at 125 g/ha,"[1]; 125 g ai/ha, Preemergence, visual injury rating after approximately 10 d, read-out: Barnyardgrass plant response rating (0 to 100 scale, 0 is no effect, 100 is complete control)",0%
same,pest or weed control at 500 g/ha,"[1]; 500 g ai/ha, preemergence, visual injury rating about 10 d after treatment, 0 to 100 scale (0 no effect, 100 complete control), read-out: Barnyardgrass plant response rating",60%
same,pest or weed control at 125 g/ha,"[2]; 125 g ai/ha, Preemergence, visual injury rating after approximately 10 d, read-out: Ryegrass, Italian plant response rating (0 to 100 scale, 0 is no effect, 100 is complete control)",0%
same,pest or weed control at 500 g/ha,"[2]; 500 g ai/ha, preemergence, visual injury rating about 10 d after treatment, 0 to 100 scale (0 no effect, 100 complete control), read-out: Ryegrass, Italian plant response rating",20%
same,pest or weed control at 125 g/ha,"[3]; 125 g ai/ha, Preemergence, visual injury rating after approximately 10 d, read-out: Foxtail, Giant plant response rating (0 to 100 scale, 0 is no effect, 100 is complete control)",70%
same,pest or weed control at 500 g/ha,"[3]; 500 g ai/ha, preemergence, visual injury rating about 10 d after treatment, 0 to 100 scale (0 no effect, 100 complete control), read-out: Foxtail, Giant plant response rating",90%
same,pest or weed control at 125 g/ha,"[4]; 125 g ai/ha, Preemergence, visual injury rating after approximately 10 d, read-out: Pigweed plant response rating (0 to 100 scale, 0 is no effect, 100 is complete control)",20%
same,pest or weed control at 500 g/ha,"[4]; 500 g ai/ha, preemergence, visual injury rating about 10 d after treatment, 0 to 100 scale (0 no effect, 100 complete control), read-out: Pigweed plant response rating",40%
same,pest or weed control at 125 g/ha,"[5]; 125 g ai/ha, Preemergence, visual injury rating after approximately 10 d, read-out: Kochia plant response rating (0 to 100 scale, 0 is no effect, 100 is complete control)",0%
same,pest or weed control at 500 g/ha,"[5]; 500 g ai/ha, preemergence, visual injury rating about 10 d after treatment, 0 to 100 scale (0 no effect, 100 complete control), read-out: Kochia plant response rating",0%
same,pest or weed control at 125 g/ha,"[6]; 125 g ai/ha, Preemergence, visual injury rating after approximately 10 d, read-out: Ragweed plant response rating (0 to 100 scale, 0 is no effect, 100 is complete control)",0%
same,pest or weed control at 500 g/ha,"[6]; 500 g ai/ha, preemergence, visual injury rating about 10 d after treatment, 0 to 100 scale (0 no effect, 100 complete control), read-out: Ragweed plant response rating",0%
same,pest or weed control at 250 g/ha,[7],0%
same,pest or weed control at 250 g/ha,[8],90%
same,pest or weed control at 250 g/ha,[9],0%
same,pest or weed control at 250 g/ha,[10],0%
same,pest or weed control at 125 g/ha,[11]; [21],60%
same,pest or weed control at 500 g/ha,[11]; [22],100%
same,pest or weed control at 125 g/ha,[12]; [21],0%
same,pest or weed control at 500 g/ha,[12]; [22],0%
same,plant injury at 125 g/ha,[13]; [21],0%
same,plant injury at 500 g/ha,[13]; [22],0%
same,pest or weed control at 125 g/ha,[14]; [21],0%
same,pest or weed control at 500 g/ha,[14]; [22],50%
same,pest or weed control at 125 g/ha,[15]; [21],0%
same,pest or weed control at 500 g/ha,[15]; [22],0%
same,pest or weed control at 125 g/ha,[16]; [21],0%
same,pest or weed control at 500 g/ha,[16]; [22],0%
same,pest or weed control at 125 g/ha,[17]; [21],0%
same,pest or weed control at 500 g/ha,[17]; [22],0%
same,pest or weed control at 125 g/ha,[18]; [21],40%
same,pest or weed control at 500 g/ha,[18]; [22],40%
same,pest or weed control at 125 g/ha,[19]; [21],0%
same,pest or weed control at 500 g/ha,[19]; [22],0%
same,"Corn plant response rating (crop injury, 0 = no effect, 100 = complete kill) at 125 g/ha",[20]; [21],0%
same,"Corn plant response rating (crop injury, 0 = no effect, 100 = complete kill) at 500 g/ha",[20]; [22],20%
